Reference: article PMC12951562, “SH2scan: Mapping SH2 Domain-Ligand Binding Selectivity for Inhibitors and Degraders” (Journal of Medicinal Chemistry, 2026)
Where two headings read alike, the source gives them in different places. Non-standard residues stand in square brackets, D forms with d. Residues, ends and D or L forms follow the SMILES beside them. *: point of attachment. pY = N[C@@H](Cc1ccc(OP(=O)(O)O)cc1)C(=O)O; Caffeoyl = O=C(/C=C/c1ccc(O)c(O)c1)*

Assays:
Test in all cases: biochemical
Assay type in all cases: binding
[1] = molecular target: T1, TNS2 (Homo sapiens, UniProt Q63HR2); details: for remaining activity at 10 µM: read-out: percent of DMSO vehicle control
T1 construct: made in house; host or cells: HEK293 (transient transfection), unpurified extract
T1 sequence (Q63HR2 1-1409): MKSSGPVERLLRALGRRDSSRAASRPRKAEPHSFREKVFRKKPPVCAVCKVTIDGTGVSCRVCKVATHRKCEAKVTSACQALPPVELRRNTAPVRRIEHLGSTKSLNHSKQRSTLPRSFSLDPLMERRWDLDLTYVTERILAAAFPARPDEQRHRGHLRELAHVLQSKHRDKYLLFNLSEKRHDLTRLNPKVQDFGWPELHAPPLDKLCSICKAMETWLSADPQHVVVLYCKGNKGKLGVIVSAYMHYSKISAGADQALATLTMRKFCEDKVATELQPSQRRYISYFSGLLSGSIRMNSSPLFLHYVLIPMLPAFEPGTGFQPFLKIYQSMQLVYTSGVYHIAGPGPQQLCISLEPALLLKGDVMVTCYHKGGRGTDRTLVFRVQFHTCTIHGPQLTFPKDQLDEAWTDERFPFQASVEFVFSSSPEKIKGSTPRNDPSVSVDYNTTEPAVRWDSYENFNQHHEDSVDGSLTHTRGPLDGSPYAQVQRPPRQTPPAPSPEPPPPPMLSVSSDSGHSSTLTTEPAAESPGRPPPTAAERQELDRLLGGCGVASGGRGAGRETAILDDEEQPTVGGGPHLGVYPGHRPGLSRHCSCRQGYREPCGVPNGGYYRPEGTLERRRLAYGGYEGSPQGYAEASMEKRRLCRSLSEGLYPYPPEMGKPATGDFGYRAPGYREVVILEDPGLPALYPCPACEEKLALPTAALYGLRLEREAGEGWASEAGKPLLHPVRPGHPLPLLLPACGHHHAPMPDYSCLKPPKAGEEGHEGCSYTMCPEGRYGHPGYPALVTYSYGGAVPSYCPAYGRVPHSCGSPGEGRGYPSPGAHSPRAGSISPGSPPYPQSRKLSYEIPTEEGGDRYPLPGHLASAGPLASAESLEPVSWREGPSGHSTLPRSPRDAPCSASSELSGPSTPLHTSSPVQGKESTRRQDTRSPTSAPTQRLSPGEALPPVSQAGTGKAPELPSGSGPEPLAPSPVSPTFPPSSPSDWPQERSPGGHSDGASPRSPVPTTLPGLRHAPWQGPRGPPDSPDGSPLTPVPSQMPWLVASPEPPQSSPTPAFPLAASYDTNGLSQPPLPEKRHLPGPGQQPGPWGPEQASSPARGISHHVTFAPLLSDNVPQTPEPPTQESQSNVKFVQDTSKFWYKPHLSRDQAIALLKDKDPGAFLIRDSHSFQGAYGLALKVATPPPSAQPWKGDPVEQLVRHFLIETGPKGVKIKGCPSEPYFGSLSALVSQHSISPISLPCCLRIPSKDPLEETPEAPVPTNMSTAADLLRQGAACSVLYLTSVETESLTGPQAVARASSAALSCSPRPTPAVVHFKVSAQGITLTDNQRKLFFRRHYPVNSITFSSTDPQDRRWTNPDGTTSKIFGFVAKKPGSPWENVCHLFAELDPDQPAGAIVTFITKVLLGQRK

[2] = molecular target: T2, VAV3 (Homo sapiens, UniProt Q9UKW4); details: for percent of DMSO vehicle control at 10 µM / remaining activity at 10 µM: read-out: percent of DMSO vehicle control
T2 construct: made in house; host or cells: HEK293 (transient transfection), unpurified extract
T2 sequence (Q9UKW4 1-847): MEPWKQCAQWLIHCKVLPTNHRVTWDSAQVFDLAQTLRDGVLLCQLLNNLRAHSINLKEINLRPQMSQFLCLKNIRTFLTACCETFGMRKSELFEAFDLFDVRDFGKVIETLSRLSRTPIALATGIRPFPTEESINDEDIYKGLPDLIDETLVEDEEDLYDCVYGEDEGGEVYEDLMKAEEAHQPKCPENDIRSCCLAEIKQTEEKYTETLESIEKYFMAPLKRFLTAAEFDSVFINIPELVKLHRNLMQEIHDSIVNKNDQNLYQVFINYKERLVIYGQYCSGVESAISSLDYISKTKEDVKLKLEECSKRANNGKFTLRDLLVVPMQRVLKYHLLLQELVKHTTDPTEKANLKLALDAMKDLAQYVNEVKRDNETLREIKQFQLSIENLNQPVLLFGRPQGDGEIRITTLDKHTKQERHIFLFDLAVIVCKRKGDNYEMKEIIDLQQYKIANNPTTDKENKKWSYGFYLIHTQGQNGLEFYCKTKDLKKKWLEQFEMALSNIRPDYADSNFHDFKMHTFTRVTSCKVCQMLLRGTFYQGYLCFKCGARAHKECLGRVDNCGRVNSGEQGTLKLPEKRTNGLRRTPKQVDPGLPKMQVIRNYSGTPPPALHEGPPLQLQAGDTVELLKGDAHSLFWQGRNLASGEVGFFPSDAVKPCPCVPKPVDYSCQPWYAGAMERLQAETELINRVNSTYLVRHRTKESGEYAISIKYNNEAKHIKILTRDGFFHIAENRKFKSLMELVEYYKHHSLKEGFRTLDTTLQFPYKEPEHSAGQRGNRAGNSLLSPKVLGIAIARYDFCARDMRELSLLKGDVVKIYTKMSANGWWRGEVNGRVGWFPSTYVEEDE

[3] = molecular target: T3, MATK (Homo sapiens, UniProt P42679); details: for percent of DMSO vehicle control at 10 µM / remaining activity at 10 µM: read-out: percent of DMSO vehicle control
T3 construct: the DNA-tagged SH2 domain concentrations used in this study were <0.1 nM; made in house; host or cells: HEK293 (transient transfection, unpurified extract)
T3 sequence (P42679 122-211 limits assumed): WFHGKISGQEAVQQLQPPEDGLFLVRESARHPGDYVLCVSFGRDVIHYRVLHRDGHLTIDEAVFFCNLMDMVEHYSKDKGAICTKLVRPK

SMILES | Kd [1] [nM] | percent of DMSO vehicle control at 10 µM [2] [%] | percent of DMSO vehicle control at 10 µM [3] [%] | remaining activity at 10 µM [1] [%] | remaining activity at 10 µM ([2]; primary screen, 10 μM) [%] | remaining activity at 10 µM ([3]; primary screen, 10 μM) [%] | remaining activity at 10 µM ([1]; primary screen, 10 μM) [%] | also measured
CC[C@H](C)[C@H](NC(=O)[C@H](CO)NC(=O)[C@H](CC(C)C)NC(=O)[C@H](CCCNC(=N)N)NC(=O)[C@H](CO)NC(=O)[C@H](CS)NC(C)=O)C(=O)N[C@@H](Cc1ccc(OP(=O)(O)O)cc1)C(=O)N[C@@H](CC(=O)O)C(=O)N[C@@H](CC(N)=O)C(=O)N[C@H](C(=O)N1CCC[C@H]1C(=O)NCC(N)=O)C(C)C [Ac-CSRLSIpYDNVPG-NH2] (Ac-CSRLSI[pY]DNVPG-NH2) | 466 ± 450 | – | – | – | – | – | – | –
CC[C@H](C)[C@H](NC(=O)[C@H](CCC(=O)O)NC(=O)[C@H](CCC(=O)O)NC(=O)[C@H](Cc1ccc(OP(=O)(O)O)cc1)NC(C)=O)C(=O)N[C@@H](CCC(=O)O)C(N)=O [Ac-pYEEIE-NH2] (Ac-[pY]EEIE-NH2) | – | – | – | – | – | – | – | percent of DMSO vehicle control ([2]; primary screen, 10 μM): 75.8%; percent of DMSO vehicle control ([3]; primary screen, 10 μM): 197.1%; percent of DMSO vehicle control ([1]; primary screen, 10 μM): 104.0%
CC(=O)N[C@@H](Cc1ccc(CP(=O)(O)O)cc1)C(=O)NC1(C(=O)N[C@@H](CC(N)=O)C(=O)NCCCc2c(O)ccc3ccccc23)CCCCC1 [CGP78850] | 1200 | 21.7 ± 3.7 | 153 ± 7.1 | 16 | – | – | – | Kd [2]: 860 nM
CC[C@H](C)[C@H](NC(=O)[C@H](CCC(=O)O)NC(=O)[C@H](CCC(=O)O)NC(=O)[C@H](Cc1ccc(OP(=O)(O)O)cc1)NC(=O)/C=C/c1ccc(O)c(O)c1)C(=O)N[C@@H](CCC(=O)O)C(=O)O [Caffeic acid-pYEEIE] (Caffeoyl-[pY]EEIE-OH) | 4300 ± 2500 | 0.4 ± 0.1 | 83.8 ± 3.5 | 4.8 ± 1.3 | – | – | – | Kd [2]: 70 ± 12 nM
O=C(CCl)Nc1cccc(CNC(=O)[C@H](Cc2ccc(OP(=O)(O)O)cc2)NC(=O)Cc2ccc(F)cc2)c1 [MN551] | – | – | – | – | 113 | 60.4 ± 2.8 | 74.1 ± 2.1 | –
NC(=O)CC[C@H](NC(=O)[C@@H]1CC[C@@H]2CCN(C(=O)CCCCCC#Cc3cccc4c3CN(C3CCC(=O)NC3=O)C4=O)C[C@H](NC(=O)c3cc4cc(C(F)(F)P(=O)(O)O)ccc4[nH]3)C(=O)N21)C(=O)NC(c1ccccc1)c1ccccc1 (stereo partly drawn) [SD-36] | – | 82.1 ± 3.8 | 159 ± 5.1 | 65.4 ± 3.3 | – | – | – | –
CC(=O)N1CC[C@H]2CC[C@@H](C(=O)N[C@@H](CCC(N)=O)C(=O)NC(c3ccccc3)c3ccccc3)N2C(=O)[C@@H](NC(=O)c2cc3cc(C(F)(F)P(=O)(O)O)ccc3[nH]2)C1 [SI-109] | – | 130 | 163 | 126 | – | – | – | –
C/C(=C\C(=O)N[C@H](C(=O)N1CCC[C@H]1C(=O)N(c1ccccc1)c1ccc(I)cc1)C(C)(C)C)c1ccc(OP(=O)(O)O)cc1 [STAT6-IN-1] | – | – | – | – | 40.3 ± 1.3 | 6.5 ± 1.8 | 55.9 ± 0.4 | Kd ([3]; dose-response, read-out: KD): 3000 ± 490 nM
CC(C)(C)[C@H](NC(=O)/C=C/c1ccc(OP(=O)(O)O)cc1)C(=O)N1CCC[C@H]1C(=O)N(c1ccccc1)c1ccc(I)cc1 [STAT6-IN-3] | – | – | – | – | 76.8 ± 21.6 | 70.3 ± 45.8 | 86.8 ± 7.1 | –
O=C(COc1ccc2cc(C(=O)Nc3ccccc3)ccc2c1)NCc1ccc(OP(=O)(O)O)c(OP(=O)(O)O)c1 [Stafib-1] | – | – | – | – | 102 | 59.9 ± 60.2 | 86 ± 8.8 | –
